Results as given in publication PMC9835529, “Investigation of Novel Quinoline–Thiazole Derivatives as Antimicrobial Agents: In Vitro and In Silico Approaches” (ACS Omega, 2022).
In brackets after ≈: the same amount, converted by molar mass.

Experiments:
NIH/3T3 cells = assay: Cytotoxicity on NIH/3T3 healthy cell line; format: cell-based; details: Mus musculus, NIH3T3, 24 h incubation
Procedure: NIH/3T3 cells were incubated in Dulbecco’s modified Eagle’s medium (DMEM) (Sigma-Aldrich, St. Louis, MO), added with fetal calf serum, penicillin (100 IU/mL), streptomycin ([…]), and 7.5% NaHCO3 at 37 °C in a humidified atmosphere of 95% air and 5% CO2. NIH/3T3 cells were seeded into the 96-well plates at a density of 1 × 10^4 cells. After 24 h of incubating period, the culture media were removed, and test compounds were added. After 24 h of incubation period, colorimetric measurements were performed by a microplate reader (Biotek) at 540 nm. Inhibition % at all concentrations was determined using the formula below, and the IC50 values were calculated from a dose–response curve obtained by plotting the percentage inhibition versus the log concentration with the use of Microsoft Excel 2013.

Candida krusei ATCC 6258 = assay: Anticandidal broth microdilution (EUCAST EDef 7.1), MIC90; format: cell-based; details: Pichia kudriavzevii, ATCC6258, C. krusei ATCC 6258; read-out: MIC90
From the text: (§1) E. coli (ATCC 35218), E. coli (ATCC 25922), S. aureus (ATCC 6538), methicillin-resistant S. aureus (MRSA) (clinical isolate), S. typhimurium (ATCC 13311), and K. pneumoniae (NCTC 9633) cells for antibacterial effect, and C. albicans (ATCC 24433), C. glabrata (ATCC 90030), C. krusei (ATCC 6258), and C. parapsilosis (ATCC 22019) for the antifungal effect of the final compounds were used to determine the MIC90 values. The broth microdilution procedure specified in the M07-A9 document of the Clinical and Laboratory Standards Institute (CLSI) was used for antibacterial study,[55] and the EDef 7.1 document published by EUCAST was used for the antifungal study.[56] For both activity studies, the detailed procedures were explained in previous studies.[57],[58]

[1] = test system: Candida albicans ATCC 24433; assay: as above; format: cell-based; details: Candida albicans, ATCC24433, C. albicans ATCC 24433; read-out: MIC90
From the text: as §1

[2] = test system: Candida parapsilosis ATCC 22019; assay: as above; format: cell-based; details: Lodderomyces parapsilosis, ATCC22019, C. parapsilosis ATCC 22019; read-out: MIC90
From the text: as §1

E. coli DNA gyrase = biological target: T1, E. coli DNA gyrase (Escherichia coli, UniProt P0AES4+P0AES6); assay: DNA-gyrase supercoiling inhibition by electrophoresis (TopoGen kit); format: biochemical; details: relaxed pHOT1 DNA
T1 construct: purchased TopoGen SKU TG2000G-3
T1 sequence (P0AES4 whole entry, one chain of several): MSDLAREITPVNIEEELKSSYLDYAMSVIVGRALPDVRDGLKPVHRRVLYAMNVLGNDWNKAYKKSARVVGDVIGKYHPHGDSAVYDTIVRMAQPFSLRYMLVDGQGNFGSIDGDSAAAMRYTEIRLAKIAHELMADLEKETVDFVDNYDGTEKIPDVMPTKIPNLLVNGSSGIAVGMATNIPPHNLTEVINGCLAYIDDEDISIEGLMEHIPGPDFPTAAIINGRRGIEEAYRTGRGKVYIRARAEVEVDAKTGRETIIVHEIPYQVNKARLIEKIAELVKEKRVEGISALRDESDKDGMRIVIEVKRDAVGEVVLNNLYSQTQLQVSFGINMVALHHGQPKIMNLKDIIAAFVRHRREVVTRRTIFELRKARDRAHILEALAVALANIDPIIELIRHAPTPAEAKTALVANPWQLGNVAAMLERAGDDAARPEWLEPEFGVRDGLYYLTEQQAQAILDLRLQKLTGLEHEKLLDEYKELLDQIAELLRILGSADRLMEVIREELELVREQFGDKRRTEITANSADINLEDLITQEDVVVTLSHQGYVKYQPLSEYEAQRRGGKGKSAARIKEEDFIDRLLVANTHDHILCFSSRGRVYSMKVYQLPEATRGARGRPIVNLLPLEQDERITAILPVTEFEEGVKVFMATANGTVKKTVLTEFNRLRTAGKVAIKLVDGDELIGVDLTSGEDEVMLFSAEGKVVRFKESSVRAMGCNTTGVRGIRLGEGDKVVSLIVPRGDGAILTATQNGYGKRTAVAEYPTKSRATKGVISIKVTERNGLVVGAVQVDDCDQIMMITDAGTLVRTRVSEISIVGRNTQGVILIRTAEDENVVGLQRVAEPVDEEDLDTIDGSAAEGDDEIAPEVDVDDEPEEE
Procedure: DNA gyrase obtained from E. coli was used to detect the inhibition of the superhelix activity of DNA gyrase. The method was performed according to the kit protocol described by the supplier (SKU TG2000G-3, TopoGen). The detailed procedures were explained in the previous study.[62]

C. glabrata ATCC 90030 = assay: Anticandidal broth microdilution (EUCAST EDef 7.1), MIC90; format: cell-based, Candida glabrata; details: Nakaseomyces glabratus, ATCC90030, C. glabrata ATCC 90030
From the text: as §1

[3] = test system: Klebsiella pneumoniae NCTC 9633; assay: Antibacterial broth microdilution (CLSI M07-A9), MIC90; format: cell-based; details: NCTC9633, K. pneumoniae NCTC 9633
From the text: (§2) The broth microdilution procedure specified in the M07-A9 document of the Clinical and Laboratory Standards Institute (CLSI) was used for antibacterial study,[55] and the EDef 7.1 document published by EUCAST was used for the antifungal study.[56] For both activity studies, the detailed procedures were explained in previous studies.[57],[58]

E. coli ATCC 25922 = assay: as above; format: cell-based; details: for MIC90: Escherichia coli, ATCC25922
From the text: as §2

[4] = test system: Staphylococcus aureus ATCC 6538; assay: as above; format: cell-based; details: Staphylococcus aureus, ATCC6538; S. aureus ATCC 6538; read-out: MIC90
From the text: as §2

[5] = test system: Salmonella typhimurium ATCC 13311; assay: as above; format: cell-based; details: Salmonella enterica; S. typhimurium ATCC 13311
From the text: as §2

[6] = test system: Escherichia coli ATCC 35218; assay: as above; format: cell-based; details: E. coli ATCC 35218; for MIC90: Escherichia coli, ATCC35218
From the text: as §2

[7] = test system: methicillin-resistant S. aureus (MRSA) (clinical isolate); assay: as above; format: cell-based; details: for MIC90: Staphylococcus aureus
From the text: as §2

[8] = biological target: T2, human aromatase enzyme (CYP19A) (Homo sapiens, UniProt P11511); assay: Aromatase (CYP19A) Inhibitor Screening Kit (Fluorometric); format: biochemical
T2 construct: purchased Bio Vision
T2 sequence (P11511 1-503): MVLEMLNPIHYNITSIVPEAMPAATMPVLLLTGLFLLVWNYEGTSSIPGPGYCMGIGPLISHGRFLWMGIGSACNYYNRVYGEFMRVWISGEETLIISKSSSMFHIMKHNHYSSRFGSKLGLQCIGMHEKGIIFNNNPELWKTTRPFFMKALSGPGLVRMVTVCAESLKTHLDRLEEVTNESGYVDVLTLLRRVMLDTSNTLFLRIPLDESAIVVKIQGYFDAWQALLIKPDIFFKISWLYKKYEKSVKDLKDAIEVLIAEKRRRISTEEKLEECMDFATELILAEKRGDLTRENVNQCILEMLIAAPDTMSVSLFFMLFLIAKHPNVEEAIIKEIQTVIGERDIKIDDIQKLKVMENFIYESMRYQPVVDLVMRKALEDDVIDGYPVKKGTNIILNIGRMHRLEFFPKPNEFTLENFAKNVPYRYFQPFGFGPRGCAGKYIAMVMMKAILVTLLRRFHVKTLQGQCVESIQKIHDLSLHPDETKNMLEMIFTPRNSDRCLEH

[9] = test system: Lanosterol 14α-demethylase (LMD, CYP51A1); assay: LDM (CYP51A1) inhibition by LC-MS-MS quantification of ergosterol level; format: cell-based
Procedure: The activity of the target compounds was tested against Candida strains via the determination of ergosterol production.
Ergosterol level was determined using the extract of total sterols from C. albicans (and its other species) following the method described by Breivik and Owades.[63] Quantification of the ergosterol level in this extract was carried out by the recently described method.[58],[64]−[66] According to these described studies, in the current work, compounds 4b, 4e, 4f, and 4h–m were undertaken to investigate their action mechanism. Thus, the LC-MS-MS-based method that quantifies the ergosterol level was applied. […]. Ergosterol quantity in negative control samples was regarded as 100%. All concentrations were analyzed in quadruplicate, and the results were expressed as mean ± standard deviation (SD).

Compound	IC50 (NIH/3T3 cells) [µM]	MIC90 (Candida krusei ATCC 6258) [µg/mL]	MIC90 [1] [µg/mL]	MIC90 [2] [µg/mL]	DNA-gyrase inhibition (electrophoresis image) (E. coli DNA gyrase)	MIC90 (C. glabrata ATCC 90030) [µg/mL]	MIC90 [3] [µg/mL]	times more effective than chloramphenicol (MIC90) (E. coli ATCC 25922)	MIC90 (E. coli ATCC 25922) [µg/mL]	MIC90 [4] [µg/mL]	MIC90 [5] [µg/mL]	times more effective than chloramphenicol (MIC90) [6]	MIC90 [6] [µg/mL]	MIC90 [7] [µg/mL]	melting point [°C]	IC50 [8] [µM]	effect on ergosterol production / LMD enzyme inhibition (in words) ([9]; C. parapsilosis)	CYP51A1 Inhibition% ([9]; C. parapsilosis, 0.06 μg/mL) [%]	CYP51A1 Inhibition% ([9]; C. parapsilosis, 0.24 μg/mL) [%]	CYP51A1 Inhibition% ([9]; C. parapsilosis, 0.98 μg/mL) [%]	further results
COc1ccc(-c2csc(N/N=C/c3cc4cc(OC)ccc4nc3Cl)n2)cc1 [4g]	10.4 ± 0.22	31.2 (≈ 73.5 µM)	> 1000	3.91 (≈ 9.2 µM)	no peak belonging to the supercoiled DNA	15.6 (≈ 36.8 µM)	> 1000	four times	3.91 (≈ 9.2 µM)	7.81 (≈ 18.4 µM)	> 1000	four times	7.81 (≈ 18.4 µM)	3.91 (≈ 9.2 µM)	176 to 180						times more effective than the standard drug chloramphenicol (MIC90) [7]: 8
COc1ccc2nc(Cl)c(/C=N/Nc3nc(-c4cccc([N+](=O)[O-])c4)cs3)cc2c1 [4i]	8.54 ± 0.26	1.95 (≈ 4.43 µM)	1.95 (≈ 4.43 µM)	1.95 (≈ 4.43 µM)		1.95 (≈ 4.43 µM)	> 1000		> 1000	> 1000	> 1000		> 1000	> 1000	212 to 214	0.033 ± 0.001					effect on ergosterol production / LMD enzyme inhibition (in words) ([9]; C. krusei): did not decrease the ergosterol production compared to the standard drugs; CYP51A1 Inhibition% ([9]; C. krusei, 0.06 μg/mL): 11.662 ± 0.479%; CYP51A1 Inhibition% ([9]; C. krusei, 0.24 μg/mL): 14.178 ± 0.655%; CYP51A1 Inhibition% ([9]; C. krusei, 0.98 μg/mL): 18.361 ± 0.767%
COc1ccc2nc(Cl)c(C=NNc3nc(-c4cccc(F)c4)cs3)cc2c1 [4j]	10 ± 0.39	62.5 (≈ 151 µM)	> 1000	< 0.06		> 1000	> 1000		> 1000	> 1000	> 1000		> 1000	> 1000	221 to 223	0.047 ± 0.001	showed their anticandidal activity via LMD enzyme inhibition	41.867 ± 0.968	55.281 ± 1.174	63.508 ± 1.948	
COc1cccc(-c2csc(N/N=C/c3cc4cc(OC)ccc4nc3Cl)n2)c1 [4k]	12 ± 0.44	1.95 (≈ 4.59 µM)	1.95 (≈ 4.59 µM)	1.95 (≈ 4.59 µM)		1.95 (≈ 4.59 µM)	> 1000		> 1000	> 1000	> 1000		> 1000	> 1000	217 to 220	0.038 ± 0.001	did not decrease the ergosterol production compared to the standard drugs	11.449 ± 0.518	15.662 ± 0.616	17.437 ± 0.861	
COc1ccc2nc(Cl)c(C=NNc3nc(-c4ccncc4)cs3)cc2c1 [4l]	> 1000	> 1000	1.95 (≈ 4.93 µM)	1.95 (≈ 4.93 µM)		1.95 (≈ 4.93 µM)	> 1000		> 1000	> 1000	> 1000		> 1000	> 1000	250 to 257	0.042 ± 0.002	showed their anticandidal activity via LMD enzyme inhibition	40.328 ± 1.326	56.137 ± 0.928	62.949 ± 2.626	
COc1ccc2nc(Cl)c(C=NNc3nc(-c4cccc5ccccc45)cs3)cc2c1 [4m]	34.5 ± 0.88	≤ 0.06	1.95 (≈ 4.38 µM)	0.24 (≈ 0.539 µM)	no peak belonging to the supercoiled DNA	1.95 (≈ 4.38 µM)	> 1000	twice	7.81 (≈ 17.6 µM)	7.81 (≈ 17.6 µM)	> 1000	four times	7.81 (≈ 17.6 µM)	7.81 (≈ 17.6 µM)	174 to 179						effect on ergosterol production / LMD enzyme inhibition (in words) ([9]; C. krusei): showed their anticandidal activity via LMD enzyme inhibition; CYP51A1 Inhibition% ([9]; C. krusei, 0.06 μg/mL): 48.431 ± 2.036%; CYP51A1 Inhibition% ([9]; C. krusei, 0.24 μg/mL): 61.289 ± 1.461%; CYP51A1 Inhibition% ([9]; C. krusei, 0.98 μg/mL): 70.574 ± 2.648%; times more effective than the standard drug chloramphenicol (MIC90) [7]: 4
